Data taken from US20110124614A1, “Methods And Compositions For The Treatment of Autoimmune Disorders” (priority 2008, published 2011).
“And” between values parts separate entries of the source, which are not always exact repeats. Equal entries are not always repeated.

What was measured:
[1] = test system: cytokine secretion by splenocytes of WT immunized mice; test: Cytokine secretion of mMog-35-55 stimulated splenocytes, Luminex, WT mice; assay type: in vivo, mouse; settings: 48 h supernatants
Method: PD-1KO (Dr. […] One week after implantation experimental autoimmune encephalomyelitis (EAE) was induced. Splenocytes were harvested from […] cell proliferation and cytokine secretion in 48 h supernatants. (*P<0.05, or **P<0.01 compared to placebo). Lymph node and spleen cells were cultured at 4×10^6 cells/well in a 24 well flat-bottom culture plate in stimulation medium (RPMI 1640, 1% sodium pyruvate, 1% L-glutamine, 0.4% 2-β-ME, 10% FBS) with 25 μg/ml mMog-35-55 peptide for 48H. Supernatants were then harvested and stored at -80° C. until tested for cytokines. Culture supernatants were assessed for cytokine levels using a Luminex Bio-Plex mouse cytokine assay kit (BioRad, Hercules, Calif.) following the manufacturer's instructions. The following cytokines were determined in a single assay in three separate experiments: IL-1βIFN-γ, TNF-α, IL-2, IL-4, IL-5. IL-6, IL-12, IL-13, and IL-17. […] This cytokine profile was drastically altered in G-1 treated PD-1Ko mice. The decrease of Il-17 and increase of Il-6, Il-10 and IFN-γ production were abolished, whereas the reduction in IL-2 and Il-4 remained. Thus PD-1 was required for […] downregulation of IL-17 but not Il-2 and Il-4, and upregulation of IL-6, Il10 and IFN-γ.

[2] = test system: liver, eyes, heart, mammary gland, brain, spleen, kidney, muscle, lung; test: H&E organ histology in G-1 treated naive mice; assay type: in vivo, mouse; settings: 1.8 mg G-1 treated naive mice
Source text: Treatment with G-1 in viva lacked the “estrogenic effects” of E2.

[3] = test system: EAE in heterozygous (GPR30^+/−) female mice; settings: mouse, in vivo

| Structure (SMILES) | secretion of IL-17 ([1]; G-1 1.8 mg/40 day pellet, WT, 25 μg/ml mMog-35-55) | production of IFN-γ ([1]; G-1 treated WT) | production of IL-1β ([1]; G-1 treated WT) | production of IL-5 ([1]; G-1 treated WT) | production of Il-4 ([1]; G-1 treated WT) | production of Il-6 ([1]; G-1 treated WT) | production of Il-12 ([1]; G-1 treated WT) | production of TNF-α ([1]; G-1 treated WT) | secretion of IL-2 ([1]; G-1 treated WT) | secretion of IL-10 ([1]; G-1 treated WT) | abnormalities by H&E staining in liver, eyes, heart, mammary gland, brain, spleen, kidney, muscle or lung [2] | Daily [3] | Incidence [3] | Mortality [3] | Onset [3] | clinical EAE (in words) [3] |
| --- | --- | --- | --- | --- | --- | --- | --- | --- | --- | --- | --- | --- | --- | --- | --- | --- |
| CC(=O)c1ccc2c(c1)C1C=CCC1C(c1cc3c(cc1Br)OCO3)N2 (stereo not shown) [G-1] | significantly reduced | increased | did not significantly change | did not significantly change | suppressed | increased | did not significantly change | did not significantly change | significantly reduced | increased | no abnormalities |  |  |  |  |  |
| C[C@]12CC[C@@H]3c4ccc(O)cc4CC[C@H]3[C@@H]1CC[C@@H]2O [E2, 17β estradiol] |  |  |  |  |  |  |  |  |  |  |  | 2.6 ± 0.8 | 4/7 and 5/10 | 0/7 and 0/10 | 20.0 ± 1.0 | delayed onset and were only partially protected from EAE |
